# Target: Mitogen-activated protein kinase 8 (Homo sapiens, UniProt P45983)
# Experiment: Inhibition of JNK1 by TR-FRET assay
# Sequence of Mitogen-activated protein kinase 8 (P45983 whole entry): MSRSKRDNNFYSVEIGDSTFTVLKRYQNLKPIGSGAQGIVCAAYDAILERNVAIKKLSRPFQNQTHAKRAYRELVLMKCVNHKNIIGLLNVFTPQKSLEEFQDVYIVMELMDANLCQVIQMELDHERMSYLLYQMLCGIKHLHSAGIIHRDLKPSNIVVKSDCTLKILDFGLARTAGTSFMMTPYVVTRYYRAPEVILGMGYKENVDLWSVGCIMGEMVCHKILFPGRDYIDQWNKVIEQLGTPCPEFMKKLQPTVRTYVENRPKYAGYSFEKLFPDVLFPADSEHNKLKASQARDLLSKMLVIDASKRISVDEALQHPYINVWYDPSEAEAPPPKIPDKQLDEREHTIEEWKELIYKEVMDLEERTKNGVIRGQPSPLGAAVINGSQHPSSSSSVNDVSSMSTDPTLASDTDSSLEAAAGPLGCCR
smiles,measurement,value
Cc1csc(NC(=O)Cc2cccc3ccccc23)c1C(N)=O,IC50,> 25 µM
Cc1cc(C)cc(CC(=O)Nc2sccc2C(N)=O)c1,IC50,2.7 µM
COc1cc(CC(=O)Nc2sccc2C(N)=O)cc(OC)c1,IC50,3.1 µM
NC(=O)c1ccsc1NC(=O)Cc1ccc(F)cc1,IC50,5.1 µM
CC1CN(CC(=O)Nc2sccc2C(N)=O)CC(C)O1 (configuration not stated),IC50,65.3 µM
COc1ccc2c(CC(=O)Nc3sccc3C(N)=O)c(Br)ccc2c1,IC50,> 25 µM
NC(=O)c1ccccc1NC(=O)Cc1cccc2ccccc12,IC50,> 100 µM
NC(=O)c1ccsc1NC(=O)Cc1coc2ccccc12,IC50,> 25 µM
NC(=O)c1ccsc1NC(=O)CN1CCN(S(=O)(=O)c2ccccc2C(F)(F)F)CC1,IC50,75.1 µM
NC(=O)c1ccsc1NC(=O)CN1CCN(Cc2ccco2)CC1,IC50,7.6 µM
NC(=O)c1ccsc1NC(=O)/C=C/c1ccccc1,IC50,> 100 µM
N#Cc1ccsc1NC(=O)Cc1cccc2ccccc12,IC50,> 100 µM
Cc1cnc2sc(CC(=O)Nc3sccc3C(N)=O)cn12,IC50,2.5 µM
NC(=O)c1ccsc1NC(=O)Cc1ccc(C(F)(F)F)cc1,IC50,6.4 µM
NC(=O)c1ccsc1NC(=O)Cc1c(F)c(F)c(F)c(F)c1F,IC50,> 50 µM
NC(=O)c1ccsc1NC(=O)Cc1cccc(Cl)c1,IC50,2.6 µM
NC(=O)c1ccsc1NC(=O)Cc1ccc2c(c1)OCO2,IC50,1.8 µM
NC(=O)c1ccsc1NC(=O)Cc1cccc(I)c1,IC50,1.8 µM
Cc1ccc(CC(=O)Nc2sccc2C(N)=O)cc1,IC50,4.3 µM
COc1ccc(CC(=O)Nc2sccc2C(N)=O)cc1OC,IC50,> 25 µM
NC(=O)c1ccsc1NC(=O)Cc1c[nH]c2ccccc12,IC50,9.4 µM
NC(=O)c1ccsc1NC(=O)Cc1ccccc1F,IC50,8.3 µM
NC(=O)c1ccsc1NC(=O)Cc1cccc(C(F)(F)F)c1,IC50,7.6 µM
NC(=O)c1ccsc1NC(=O)Cc1cc(Cl)c2c(c1)OCCCO2,IC50,1.9 µM
NC(=O)c1ccsc1NC(=O)Cc1cc(F)cc2c1OCOC2,IC50,4.9 µM
CC(C)Cc1ccc(CC(=O)Nc2sccc2C(N)=O)cc1,IC50,> 25 µM
NC(=O)c1ccsc1NC(=O)Cc1nc2ccccc2[nH]1,IC50,> 25 µM
Cc1cccc(CC(=O)Nc2sccc2C(N)=O)c1,IC50,5.4 µM
NC(=O)c1ccsc1NC(=O)Cc1ccc2c(c1)CCCC2,IC50,3.6 µM
NC(=O)c1ccsc1NC(=O)CCc1ccccc1,IC50,> 100 µM
COc1ccc2cc(Br)ccc2c1CC(=O)Nc1sccc1C(N)=O,IC50,> 25 µM
NC(=O)c1ccsc1NC(=O)Cc1nc(-c2cccs2)cs1,IC50,> 25 µM
NC(=O)c1ccsc1NC(=O)Cc1ccc(-c2ccccc2)cc1,IC50,> 50 µM
Cc1sc(NC(=O)Cc2cccc3ccccc23)c(C(N)=O)c1C,IC50,26 µM
NC(=O)c1ccsc1NC(=O)Cc1ccc([N+](=O)[O-])cc1,IC50,2.9 µM
NC(=O)c1ccsc1NC(=O)Cc1ccc(Br)cc1,IC50,> 25 µM
NC(=O)c1ccsc1NC(=O)Cc1ccc(OC(F)(F)F)cc1,IC50,5.8 µM

# — ChEMBL document CHEMBL1764959, “Design, synthesis, and structure-activity relationship studies of thiophene-3-carboxamide derivatives as dual inhibitors of the c-Jun N-terminal kinase” (Bioorg Med Chem, 2011)
